According to the kinase profiling compilation of Christmann-Franck et al. (2016):
pKd: −log10 of the molar value.

Tests used:
Assay in all cases: KINOMEscan competition binding
MST4 (human) = MST4 (human) (UniProt Q9P289); details: compound 10.0 µM
PAK2 (human) = PAK2 (human) (UniProt Q13177); details: compound 10.0 µM
STK3 (human) = STK3 (human) (UniProt Q13188); details: compound 10.0 µM
NIM1 (human) = NIM1 (human) (UniProt Q8IY84); details: compound 10.0 µM
TBK1 (human) = TBK1 (human) (UniProt Q9UHD2); details: compound 10.0 µM
Sequence of TBK1 (human) (Q9UHD2 whole entry, looked up): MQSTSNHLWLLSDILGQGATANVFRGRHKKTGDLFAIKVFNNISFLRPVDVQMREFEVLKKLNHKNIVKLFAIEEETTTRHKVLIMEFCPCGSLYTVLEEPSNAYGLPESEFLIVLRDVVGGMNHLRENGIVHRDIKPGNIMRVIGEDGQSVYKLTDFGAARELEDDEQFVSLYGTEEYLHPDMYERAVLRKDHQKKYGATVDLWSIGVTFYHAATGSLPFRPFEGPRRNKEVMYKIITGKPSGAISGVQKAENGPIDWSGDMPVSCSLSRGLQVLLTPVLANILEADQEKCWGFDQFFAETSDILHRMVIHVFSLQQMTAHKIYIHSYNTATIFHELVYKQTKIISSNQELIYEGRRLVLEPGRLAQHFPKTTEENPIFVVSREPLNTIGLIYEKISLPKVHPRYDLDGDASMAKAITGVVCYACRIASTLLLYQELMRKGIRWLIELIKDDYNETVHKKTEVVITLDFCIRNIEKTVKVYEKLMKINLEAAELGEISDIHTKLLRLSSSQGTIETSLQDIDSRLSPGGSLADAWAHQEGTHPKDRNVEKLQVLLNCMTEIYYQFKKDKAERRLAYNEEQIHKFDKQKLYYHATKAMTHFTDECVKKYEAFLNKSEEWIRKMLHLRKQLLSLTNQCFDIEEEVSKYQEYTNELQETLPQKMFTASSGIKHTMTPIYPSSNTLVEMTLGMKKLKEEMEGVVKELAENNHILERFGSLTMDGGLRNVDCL

MYO3B (human) = MYO3B (human) (UniProt Q8WXR4); details: compound 10.0 µM
HUNK (human) = HUNK (human) (UniProt P57058); details: compound 10.0 µM
MYLK2 (human) = MYLK2 (human) (UniProt Q9H1R3); details: compound 10.0 µM
MAPKAPK2 (human) = MAPKAPK2 (human) (UniProt P49137); details: compound 10.0 µM
Sequence of MAPKAPK2 (human) (P49137 whole entry, looked up): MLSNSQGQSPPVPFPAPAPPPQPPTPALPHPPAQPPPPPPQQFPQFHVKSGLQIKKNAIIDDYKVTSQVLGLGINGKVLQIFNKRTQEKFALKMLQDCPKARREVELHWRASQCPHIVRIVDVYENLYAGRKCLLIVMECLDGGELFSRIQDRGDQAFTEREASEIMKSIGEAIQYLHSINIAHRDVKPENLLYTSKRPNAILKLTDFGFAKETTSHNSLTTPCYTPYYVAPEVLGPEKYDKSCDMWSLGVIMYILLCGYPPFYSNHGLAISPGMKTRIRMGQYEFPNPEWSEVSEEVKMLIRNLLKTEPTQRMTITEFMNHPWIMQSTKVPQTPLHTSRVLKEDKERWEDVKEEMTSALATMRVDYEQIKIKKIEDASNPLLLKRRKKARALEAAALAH

RPS6KA3 KD1 (human) = RPS6KA3 KD1 (human) (UniProt P51812); details: compound 10.0 µM
BMP2K (human) = BMP2K (human) (UniProt Q9NSY1); details: compound 10.0 µM
SIK3 (human) = SIK3 (human) (UniProt Q9Y2K2); details: compound 10.0 µM
ROCK1 (human) = ROCK1 (human) (UniProt Q13464); details: compound 10.0 µM
EPHA8 (human) = EPHA8 (human) (UniProt P29322); details: compound 10.0 µM
MUSK (human) = MUSK (human) (UniProt O15146); details: compound 10.0 µM
TNNI3K (human) = TNNI3K (human) (UniProt Q59H18); details: compound 10.0 µM
[1] = test system: EGFR (human), P00533 [L858R]; details: compound 10.0 µM
ERBB4 (human) = ERBB4 (human) (UniProt Q15303); details: compound 10.0 µM
ULK1 (human) = ULK1 (human) (UniProt O75385); details: compound 10.0 µM
EPHB2 (human) = EPHB2 (human) (UniProt P29323); details: compound 10.0 µM
[2] = test system: FLT3 (human), P36888 [ITD]; details: compound 10.0 µM
MAP3K3 (human) = MAP3K3 (human) (UniProt Q99759); details: compound 10.0 µM
BTK (human) = BTK (human) (UniProt Q06187); details: compound 10.0 µM
MARK1 (human) = MARK1 (human) (UniProt Q9P0L2); details: compound 10.0 µM
RPS6KA5 KD2 (human) = RPS6KA5 KD2 (human) (UniProt O75582); details: compound 10.0 µM
MKNK2 (human) = MKNK2 (human) (UniProt Q9HBH9)
Sequence of MKNK2 (human) (Q9HBH9 whole entry, looked up): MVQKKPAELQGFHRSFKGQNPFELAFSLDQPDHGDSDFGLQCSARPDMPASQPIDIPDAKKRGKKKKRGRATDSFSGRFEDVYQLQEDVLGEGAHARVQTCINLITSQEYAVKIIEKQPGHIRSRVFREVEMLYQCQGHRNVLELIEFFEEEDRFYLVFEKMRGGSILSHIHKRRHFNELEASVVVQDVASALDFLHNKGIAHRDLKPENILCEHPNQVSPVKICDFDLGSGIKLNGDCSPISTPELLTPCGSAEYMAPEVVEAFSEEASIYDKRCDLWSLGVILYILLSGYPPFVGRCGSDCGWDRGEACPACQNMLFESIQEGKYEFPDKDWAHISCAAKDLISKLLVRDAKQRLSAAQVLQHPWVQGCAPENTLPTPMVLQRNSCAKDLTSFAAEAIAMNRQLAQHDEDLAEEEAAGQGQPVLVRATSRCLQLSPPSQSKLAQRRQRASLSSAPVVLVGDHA

NLK (human) = NLK (human) (UniProt Q9UBE8); details: compound 10.0 µM
Sequence of NLK (human) (Q9UBE8 whole entry, looked up): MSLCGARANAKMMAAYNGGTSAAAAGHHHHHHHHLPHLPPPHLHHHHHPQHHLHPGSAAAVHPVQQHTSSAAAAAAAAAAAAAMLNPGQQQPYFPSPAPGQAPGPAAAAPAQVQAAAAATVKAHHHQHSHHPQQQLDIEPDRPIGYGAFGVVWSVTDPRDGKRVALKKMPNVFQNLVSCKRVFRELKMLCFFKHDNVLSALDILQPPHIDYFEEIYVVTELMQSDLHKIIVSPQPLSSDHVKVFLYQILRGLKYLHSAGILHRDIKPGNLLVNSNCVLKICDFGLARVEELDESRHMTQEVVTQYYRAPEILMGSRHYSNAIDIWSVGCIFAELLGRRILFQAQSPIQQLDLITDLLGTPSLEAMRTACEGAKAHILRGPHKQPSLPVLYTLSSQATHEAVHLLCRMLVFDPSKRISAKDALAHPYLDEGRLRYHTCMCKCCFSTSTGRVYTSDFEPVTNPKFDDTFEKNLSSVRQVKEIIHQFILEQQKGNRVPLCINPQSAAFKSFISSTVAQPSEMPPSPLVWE

MAPK1 (human) = MAPK1 (human) (UniProt P28482); details: compound 10.0 µM
CDK13 (human) = CDK13 (human) (UniProt Q14004); details: compound 10.0 µM
MAP3K2 (human) = MAP3K2 (human) (UniProt Q9Y2U5); details: compound 10.0 µM
SRPK3 (human) = SRPK3 (human) (UniProt Q9UPE1); details: compound 10.0 µM
LCK (human) = LCK (human) (UniProt P06239); details: compound 10.0 µM
AKT2 (human) = AKT2 (human) (UniProt P31751); details: compound 10.0 µM
FGFR1 (human) = FGFR1 (human) (UniProt P11362); details: compound 10.0 µM
Sequence of FGFR1 (human) (P11362 whole entry, looked up): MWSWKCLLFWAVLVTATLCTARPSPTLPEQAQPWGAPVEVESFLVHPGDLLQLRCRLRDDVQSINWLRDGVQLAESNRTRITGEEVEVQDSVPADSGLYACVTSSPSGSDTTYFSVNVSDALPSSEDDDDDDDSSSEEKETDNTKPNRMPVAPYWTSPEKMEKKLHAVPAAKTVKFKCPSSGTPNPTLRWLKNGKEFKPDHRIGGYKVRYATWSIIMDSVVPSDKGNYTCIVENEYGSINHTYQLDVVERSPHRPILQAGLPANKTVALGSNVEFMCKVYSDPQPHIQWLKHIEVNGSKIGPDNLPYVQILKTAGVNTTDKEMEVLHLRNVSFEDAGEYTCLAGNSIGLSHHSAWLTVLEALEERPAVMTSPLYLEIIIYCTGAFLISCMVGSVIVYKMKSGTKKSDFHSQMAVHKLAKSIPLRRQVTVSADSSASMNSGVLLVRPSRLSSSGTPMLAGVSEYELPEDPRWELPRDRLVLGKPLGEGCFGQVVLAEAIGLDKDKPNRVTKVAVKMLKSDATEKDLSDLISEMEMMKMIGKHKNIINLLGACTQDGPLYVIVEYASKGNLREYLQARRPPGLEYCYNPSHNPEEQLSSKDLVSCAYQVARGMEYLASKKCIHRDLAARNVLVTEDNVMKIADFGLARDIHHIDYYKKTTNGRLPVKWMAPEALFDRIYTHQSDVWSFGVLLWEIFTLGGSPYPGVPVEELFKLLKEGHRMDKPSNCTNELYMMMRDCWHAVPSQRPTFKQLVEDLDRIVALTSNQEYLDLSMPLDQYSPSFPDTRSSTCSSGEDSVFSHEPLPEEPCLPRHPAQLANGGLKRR

CAMK2D (human) = CAMK2D (human) (UniProt Q13557); details: compound 10.0 µM
PAK7 (human) = PAK7 (human) (UniProt Q9P286); details: compound 10.0 µM
CDK3 (human) = CDK3 (human) (UniProt Q00526); details: compound 10.0 µM
MYLK4 (human) = MYLK4 (human) (UniProt Q86YV6); details: compound 10.0 µM
BRSK2 (human) = BRSK2 (human) (UniProt Q8IWQ3); details: compound 10.0 µM
FLT3 (human) = FLT3 (human) (UniProt P36888); details: compound 10.0 µM
RIOK1 (human) = RIOK1 (human) (UniProt Q9BRS2); details: compound 10.0 µM

Sequence of PAK2 (human) (Q13177 whole entry, looked up): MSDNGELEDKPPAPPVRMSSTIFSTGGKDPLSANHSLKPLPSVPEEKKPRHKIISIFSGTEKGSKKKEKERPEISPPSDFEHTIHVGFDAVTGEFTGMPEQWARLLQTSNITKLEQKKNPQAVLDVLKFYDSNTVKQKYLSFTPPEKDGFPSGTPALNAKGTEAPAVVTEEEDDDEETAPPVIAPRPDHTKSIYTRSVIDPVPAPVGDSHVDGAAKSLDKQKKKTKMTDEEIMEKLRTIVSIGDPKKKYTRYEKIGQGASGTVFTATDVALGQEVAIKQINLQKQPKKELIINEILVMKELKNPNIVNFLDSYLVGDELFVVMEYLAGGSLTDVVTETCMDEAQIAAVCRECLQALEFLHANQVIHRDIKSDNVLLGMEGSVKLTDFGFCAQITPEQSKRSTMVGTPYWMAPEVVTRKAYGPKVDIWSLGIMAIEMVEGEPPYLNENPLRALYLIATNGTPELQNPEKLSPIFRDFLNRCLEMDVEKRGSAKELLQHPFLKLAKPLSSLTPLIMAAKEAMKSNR
Sequence of STK3 (human) (Q13188 whole entry, looked up): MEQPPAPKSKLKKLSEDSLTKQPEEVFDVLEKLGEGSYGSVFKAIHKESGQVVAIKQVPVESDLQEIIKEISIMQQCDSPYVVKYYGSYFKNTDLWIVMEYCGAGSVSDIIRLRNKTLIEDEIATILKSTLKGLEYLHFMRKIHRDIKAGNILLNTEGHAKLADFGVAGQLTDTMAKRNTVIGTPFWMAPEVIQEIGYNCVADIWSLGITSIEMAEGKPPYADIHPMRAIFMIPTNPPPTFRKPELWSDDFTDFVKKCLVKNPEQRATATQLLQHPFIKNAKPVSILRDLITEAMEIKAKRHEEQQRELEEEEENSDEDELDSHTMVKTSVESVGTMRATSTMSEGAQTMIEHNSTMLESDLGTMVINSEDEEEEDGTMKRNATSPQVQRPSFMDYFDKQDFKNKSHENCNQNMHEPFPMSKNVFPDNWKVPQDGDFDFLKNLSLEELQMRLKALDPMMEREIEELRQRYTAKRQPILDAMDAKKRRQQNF
Sequence of MST4 (human) (Q9P289 whole entry, looked up): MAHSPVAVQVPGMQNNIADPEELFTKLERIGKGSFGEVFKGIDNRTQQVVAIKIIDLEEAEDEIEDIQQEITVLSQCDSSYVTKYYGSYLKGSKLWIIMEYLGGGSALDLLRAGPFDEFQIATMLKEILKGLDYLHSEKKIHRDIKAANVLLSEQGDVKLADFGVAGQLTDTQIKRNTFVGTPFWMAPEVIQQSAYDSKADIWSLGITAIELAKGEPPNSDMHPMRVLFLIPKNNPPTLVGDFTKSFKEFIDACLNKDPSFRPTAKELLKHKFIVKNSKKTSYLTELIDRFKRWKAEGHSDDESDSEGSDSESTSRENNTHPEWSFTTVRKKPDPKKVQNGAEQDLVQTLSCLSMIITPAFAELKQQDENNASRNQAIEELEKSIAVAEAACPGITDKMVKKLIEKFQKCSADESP
Sequence of NIM1 (human) (Q8IY84 whole entry, looked up): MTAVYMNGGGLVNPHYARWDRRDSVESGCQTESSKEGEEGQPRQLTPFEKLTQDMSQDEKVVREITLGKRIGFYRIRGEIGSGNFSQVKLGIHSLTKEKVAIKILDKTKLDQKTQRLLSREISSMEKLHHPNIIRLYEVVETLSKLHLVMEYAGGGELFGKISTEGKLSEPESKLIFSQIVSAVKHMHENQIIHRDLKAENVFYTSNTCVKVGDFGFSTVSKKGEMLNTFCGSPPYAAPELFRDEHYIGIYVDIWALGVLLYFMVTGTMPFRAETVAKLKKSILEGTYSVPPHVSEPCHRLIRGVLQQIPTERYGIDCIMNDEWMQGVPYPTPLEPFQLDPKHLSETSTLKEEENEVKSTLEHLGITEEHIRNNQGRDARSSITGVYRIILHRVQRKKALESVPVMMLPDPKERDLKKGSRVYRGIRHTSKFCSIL

## COc1cc(C(=O)N2CCC(N3CCN(C)CC3)CC2)ccc1Nc1ncc2c(n1)N(C)c1ccccc1C(=O)N2C
MST4 (human)
  kinase still bound, per cent of control: 95%
PAK2 (human)
  kinase still bound, per cent of control: 65%
STK3 (human)
  kinase still bound, per cent of control: 71%
NIM1 (human)
  kinase still bound, per cent of control: 100%
TBK1 (human)
  kinase still bound, per cent of control: 97%
MYO3B (human)
  kinase still bound, per cent of control: 83%
HUNK (human)
  kinase still bound, per cent of control: 100%
MYLK2 (human)
  kinase still bound, per cent of control: 98%
MAPKAPK2 (human)
  kinase still bound, per cent of control: 100%
RPS6KA3 KD1 (human)
  kinase still bound, per cent of control: 77%
BMP2K (human)
  kinase still bound, per cent of control: 100%
SIK3 (human)
  kinase still bound, per cent of control: 100%
ROCK1 (human)
  kinase still bound, per cent of control: 100%
EPHA8 (human)
  kinase still bound, per cent of control: 80%
MUSK (human)
  kinase still bound, per cent of control: 99%
TNNI3K (human)
  kinase still bound, per cent of control: 100%
[1]
  kinase still bound, per cent of control: 79%
ERBB4 (human)
  kinase still bound, per cent of control: 100%
ULK1 (human)
  kinase still bound, per cent of control: 80%
EPHB2 (human)
  kinase still bound, per cent of control: 100%
[2]
  kinase still bound, per cent of control: 100%
MAP3K3 (human)
  kinase still bound, per cent of control: 97%
BTK (human)
  kinase still bound, per cent of control: 100%
MARK1 (human)
  kinase still bound, per cent of control: 87%
RPS6KA5 KD2 (human)
  kinase still bound, per cent of control: 92%
MKNK2 (human)
  pKd: 6.42
MKNK2 (human); compound 10.0 µM
  kinase still bound, per cent of control: 1.2%
NLK (human)
  kinase still bound, per cent of control: 50%
MAPK1 (human)
  kinase still bound, per cent of control: 85%
CDK13 (human)
  residual activity: 100%
MAP3K2 (human)
  kinase still bound, per cent of control: 97%
SRPK3 (human)
  kinase still bound, per cent of control: 72%
LCK (human)
  kinase still bound, per cent of control: 100%
AKT2 (human)
  kinase still bound, per cent of control: 100%
FGFR1 (human)
  kinase still bound, per cent of control: 86%
CAMK2D (human)
  kinase still bound, per cent of control: 28%
PAK7 (human)
  kinase still bound, per cent of control: 96%
CDK3 (human)
  residual activity: 100%
MYLK4 (human)
  kinase still bound, per cent of control: 80%
BRSK2 (human)
  kinase still bound, per cent of control: 64%
FLT3 (human)
  kinase still bound, per cent of control: 100%
RIOK1 (human)
  kinase still bound, per cent of control: 100%
